± gives the uncertainty stated by the source.
Assay: xn = mol fraction of the nth substance listed

BrCCBr + C1CCCCC1
101.33 kPa
Conditions	viscosity [mPa·s]
298.15 K, x1 = 0.1283	0.8597 ± 0.011
298.15 K, x1 = 0.2453	0.8556 ± 0.01
298.15 K, x1 = 0.3514	0.926 ± 0.011
298.15 K, x1 = 0.4599	0.9659 ± 0.012
298.15 K, x1 = 0.5537	1.009 ± 0.012
298.15 K, x1 = 0.6465	1.105 ± 0.013
298.15 K, x1 = 0.7406	1.208 ± 0.014
298.15 K, x1 = 0.8327	1.311 ± 0.015
298.15 K, x1 = 0.91	1.45 ± 0.017
308.15 K, x1 = 0.1562	0.7122 ± 0.0089
308.15 K, x1 = 0.2398	0.7673 ± 0.0095
308.15 K, x1 = 0.3629	0.8116 ± 0.0099
308.15 K, x1 = 0.4545	0.8447 ± 0.01
308.15 K, x1 = 0.5559	0.9064 ± 0.011
308.15 K, x1 = 0.6741	1.021 ± 0.012
308.15 K, x1 = 0.7424	1.055 ± 0.012
308.15 K, x1 = 0.8334	1.145 ± 0.013
308.15 K, x1 = 0.9281	1.286 ± 0.015

C1COCCO1 + C1CCCCC1
viscosity [mPa·s], 101 kPa
Conditions	298.15 K	303.15 K	308.15 K	313.15 K	318.15 K
x1 = 0.1001	–	0.793 ± 0.008	–	–	–
x1 = 0.2073	–	0.783 ± 0.008	–	–	–
x1 = 0.3007	–	0.785 ± 0.008	–	–	–
x1 = 0.4018	–	0.787 ± 0.008	–	–	–
x1 = 0.5018	–	0.815 ± 0.008	–	–	–
x1 = 0.5983	–	0.841 ± 0.008	–	–	–
x1 = 0.6997	–	0.882 ± 0.009	–	–	–
x1 = 0.7992	–	0.934 ± 0.009	–	–	–
x1 = 0.8901	–	1 ± 0.01	–	–	–
x2 = 0.0864	1.083 ± 0.011	1.009 ± 0.01	0.936 ± 0.009	0.869 ± 0.009	0.808 ± 0.008
x2 = 0.2096	0.992 ± 0.01	0.917 ± 0.009	0.851 ± 0.009	0.792 ± 0.008	0.738 ± 0.007
x2 = 0.286	0.943 ± 0.009	0.876 ± 0.009	0.813 ± 0.008	0.756 ± 0.008	0.702 ± 0.007
x2 = 0.391	0.887 ± 0.009	0.82 ± 0.008	0.763 ± 0.008	0.709 ± 0.007	0.661 ± 0.007
x2 = 0.535	0.848 ± 0.009	0.785 ± 0.008	0.73 ± 0.007	0.676 ± 0.007	0.632 ± 0.007
x2 = 0.6125	0.831 ± 0.008	0.772 ± 0.008	0.715 ± 0.007	0.665 ± 0.007	0.621 ± 0.006
x2 = 0.685	0.821 ± 0.008	0.766 ± 0.008	0.711 ± 0.007	0.66 ± 0.007	0.617 ± 0.006
x2 = 0.773	0.824 ± 0.008	0.763 ± 0.008	0.708 ± 0.007	0.66 ± 0.007	0.614 ± 0.006
x2 = 0.8223	0.828 ± 0.008	0.768 ± 0.008	0.714 ± 0.007	0.663 ± 0.007	0.617 ± 0.006
x2 = 0.9303	0.847 ± 0.009	0.781 ± 0.008	0.724 ± 0.007	0.673 ± 0.007	0.627 ± 0.006

Brc1ccccc1 + C1CCOC1
viscosity [mPa·s], 101 kPa
Conditions	x2 = 0.1051	x2 = 0.2012	x2 = 0.3022	x2 = 0.4031	x2 = 0.4987
298.15 K	1.014 ± 0.0082	0.9619 ± 0.0078	0.9067 ± 0.0074	0.8488 ± 0.007	0.7916 ± 0.0066
313.15 K	0.8409 ± 0.007	0.8 ± 0.0067	0.7551 ± 0.0064	0.7079 ± 0.006	0.6622 ± 0.0057

CCC(C)Cl (configuration not stated) + C1CCOC1
298.15 K, 101 kPa
Conditions	viscosity [mPa·s]
x2 = 0.0544	0.3967 ± 0.0052
x2 = 0.111	0.3999 ± 0.0052
x2 = 0.2078	0.4057 ± 0.0052
x2 = 0.2947	0.411 ± 0.0052
x2 = 0.3996	0.4176 ± 0.0051
x2 = 0.5075	0.4246 ± 0.0051
x2 = 0.6041	0.4313 ± 0.0051
x2 = 0.7055	0.4387 ± 0.0051
x2 = 0.8076	0.4469 ± 0.0051
x2 = 0.9065	0.4551 ± 0.0051
x2 = 0.9544	0.4592 ± 0.0051

Brc1ccccc1 + C1CCOCC1
viscosity [mPa·s], 101 kPa
Conditions	x2 = 0.097	x2 = 0.1996	x2 = 0.3053	x2 = 0.4011	x2 = 0.5073
298.15 K	1.05 ± 0.0085	1.037 ± 0.0084	1.021 ± 0.0083	1 ± 0.0081	0.9753 ± 0.0079
313.15 K	0.8682 ± 0.0072	0.8547 ± 0.0071	0.8377 ± 0.007	0.8212 ± 0.0068	0.7989 ± 0.0067

Brc1ccccc1 + C1COCCO1
303.15 K, 101 kPa
Conditions	viscosity [mPa·s]
x1 = 0.083	1.075 ± 0.018
x1 = 0.17	1.078 ± 0.018
x1 = 0.259	1.122 ± 0.018
x1 = 0.352	1.131 ± 0.018
x1 = 0.449	1.125 ± 0.018
x1 = 0.55	1.115 ± 0.018
x1 = 0.655	1.108 ± 0.018
x1 = 0.766	1.079 ± 0.018
x1 = 0.88	1.034 ± 0.017

COc1ccccc1O + C1COCCO1
308.15 K, 101 kPa
Conditions	viscosity [mPa·s]
x2 = 0.1	4.29 ± 0.053
x2 = 0.2	4.18 ± 0.051
x2 = 0.3	3.795 ± 0.047
x2 = 0.4	3.347 ± 0.041
x2 = 0.5	2.73 ± 0.034
x2 = 0.6	2.231 ± 0.028
x2 = 0.7	1.834 ± 0.023
x2 = 0.8	1.453 ± 0.018
x2 = 0.9	1.172 ± 0.015

C1=C[C@H]2[C@@H](C1)[C@H]1C=C[C@@H]2C1 + CC1CCCCC1
viscosity [mPa·s], 101.2 kPa
Conditions	x1 = 0.0987	x1 = 0.2012	x1 = 0.3023	x1 = 0.4007	x1 = 0.5024	x1 = 0.6001	x1 = 0.6994	x1 = 0.8017	x1 = 0.9021
293.15 K	0.8197 ± 0.043	0.9187 ± 0.049	1.043 ± 0.058	1.198 ± 0.07	1.398 ± 0.085	1.646 ± 0.11	2.032 ± 0.15	2.607 ± 0.21	3.386 ± 0.28
298.15 K	0.7605 ± 0.04	0.8517 ± 0.046	0.9677 ± 0.053	1.1 ± 0.063	1.28 ± 0.077	1.504 ± 0.1	1.855 ± 0.14	2.367 ± 0.18	3.029 ± 0.24
303.15 K	0.7145 ± 0.037	0.791 ± 0.042	0.8907 ± 0.049	1.011 ± 0.058	1.178 ± 0.071	1.387 ± 0.091	1.693 ± 0.12	2.156 ± 0.16	2.723 ± 0.21
308.15 K	0.6717 ± 0.035	0.7439 ± 0.039	0.8387 ± 0.046	0.9497 ± 0.055	1.109 ± 0.068	1.306 ± 0.085	1.586 ± 0.11	1.993 ± 0.14	2.477 ± 0.18
313.15 K	0.6316 ± 0.033	0.7051 ± 0.038	0.7996 ± 0.044	0.9101 ± 0.052	1.05 ± 0.062	1.226 ± 0.078	1.473 ± 0.1	1.819 ± 0.13	2.259 ± 0.17
318.15 K	0.5952 ± 0.032	0.6697 ± 0.036	0.7496 ± 0.041	0.8519 ± 0.048	0.9802 ± 0.058	1.138 ± 0.071	1.359 ± 0.091	1.668 ± 0.12	2.059 ± 0.15

C1COCCO1 + CC#N
viscosity [mPa·s], 101 kPa
Conditions	x2 = 0.1926	x2 = 0.3492	x2 = 0.4791	x2 = 0.5886	x2 = 0.6822	x2 = 0.763	x2 = 0.8336	x2 = 0.8957	x2 = 0.9508
298.15 K	0.9468 ± 0.024	0.772 ± 0.02	0.6349 ± 0.016	0.5315 ± 0.014	0.4573 ± 0.012	0.4099 ± 0.011	0.3679 ± 0.0096	0.3482 ± 0.0091	0.3389 ± 0.0089
308.15 K	0.8244 ± 0.021	0.6862 ± 0.018	0.5802 ± 0.015	0.503 ± 0.013	0.4477 ± 0.012	0.4079 ± 0.011	0.3775 ± 0.0098	0.3531 ± 0.0092	0.334 ± 0.0087
318.15 K	0.7189 ± 0.019	0.5994 ± 0.015	0.5014 ± 0.013	0.4305 ± 0.011	0.3854 ± 0.01	0.3542 ± 0.0093	0.3354 ± 0.0088	0.3194 ± 0.0084	0.3076 ± 0.0081
